What is called IC50 is the concentration that inhibits the measured activity by half.

We go through eight compounds from PMC10196118, “Evidence for broad cross-reactivity of the SARS-CoV-2 NSP12-directed CD4^+ T-cell response with pre-primed responses directed against common cold coronaviruses” (Frontiers in Immunology, 2023).

The target of one test is HLA DRB1*01:01 (Homo sapiens, UniProt P01903+P01911, A100R/D57E/F55L/F60I/F76Y/I96L/L162R/M171V/P40L/Q125E/R42F/V115G/Y59C). Kind of test: biochemical. It is filed as binding. Conditions: binder threshold 1,000 nM, read-out: In vitro (IC50 nM) DRB1*01:01.
A further test concerns the target HLA DRB1*03:01 (Homo sapiens, UniProt P01903+P01911, A100K/A102G/A103R/A169T/F55Y/I96L/K41T/L162R/M171V/P40S/Q125H/Q178H/Q39Y/R42S/S66N/T106N/T262R/W38E/Y61H). Kind of test: biochemical. It is filed as binding. Conditions: binder threshold 1,000 nM, read-out: In vitro (IC50 nM) DRB1*03:01.
The next test concerns the target HLA DRB1*04:01 (Homo sapiens, UniProt P01903+P01911, A100K/A169T/F76Y/I96L/K127E/L162R/M171V/N62H/P40V/Q125Y/R42H/S133A/S149N/S66Y/V115G/V209L/W38E). Kind of test: biochemical. It counts as binding. The settings on record: binder threshold 1,000 nM, read-out: In vitro (IC50 nM) DRB1*04:01.
The target in the next test is HLA DRB1*04:05 (Homo sapiens, UniProt P01903+P01911, A100R/A169T/D86S/F76Y/I96L/K127E/L162R/M171V/N62H/P40V/Q125Y/R42H/S133A/S149N/S66Y/V115G/V209L/W38E). The experiment in a line: biochemical. It counts as binding. Conditions: binder threshold 1,000 nM, read-out: In vitro (IC50 nM) DRB1*04:05.
The next test has as its target HLA DRB1*07:01 (Homo sapiens, UniProt P01903+P01911, A100R/A102G/A103Q/D57E/D86V/E43K/F76Y/K127E/L162R/M171V/P40G/Q125H/Q99D/R33Q/R42Y/R54Q/S133A/S66F/T210M/V115G/Y107V/Y59L/Y89S). The experiment in a line: biochemical. It is filed as binding. Conditions: binder threshold 1,000 nM, read-out: In vitro (IC50 nM) DRB1*07:01.
The target in the next test is HLA DRB1*08:02 (Homo sapiens, UniProt P01903+P01911, A100R/A103L/A169T/F76Y/H45Y/I96F/K41T/L162R/M171V/P40S/Q125H/Q178H/Q39Y/Q99D/R218S/R42G/S66Y/V115G/W38E). The experiment in a line: biochemical. It is filed as binding. Conditions: binder threshold 1,000 nM, read-out: In vitro (IC50 nM) DRB1*08:02.
A further test addresses HLA DRB1*09:01 (Homo sapiens, UniProt P01903+P01911, A100R/A103E/D57H/D86V/F55Y/F60I/F76Y/I96F/K127E/L162R/M171V/P40D/Q125H/Q99R/R33Q/R42F/S133A/S66N/T210M/V115G/W38K/Y107V/Y59G/Y89S). Kind of test: biochemical. It counts as binding. The settings on record: binder threshold 1,000 nM, read-out: In vitro (IC50 nM) DRB1*09:01.
In the next test the target is HLA DRB1*11:01 (Homo sapiens, UniProt P01903+P01911, A100R/A169T/A87E/I96F/K41T/L162R/M171V/P40S/Q125H/Q178H/Q39Y/Q99D/R42S/S66Y/T262R/V115G/W38E). The experiment in a line: biochemical. It counts as binding. The settings on record: binder threshold 1,000 nM, read-out: In vitro (IC50 nM) DRB1*11:01.
For another test, the target named is HLA DRB1*12:01 (Homo sapiens, UniProt P01903+P01911, A100R/A169T/D57E/D86V/F55L/H45Y/K41T/L162R/M171V/P40S/Q125H/Q178H/Q39Y/Q99D/R42G/S66L/T262R/V114A/V67L/W38E/Y59H/Y61H/Y89S). Kind of test: biochemical. It counts as binding. Conditions: binder threshold 1,000 nM, read-out: In vitro (IC50 nM) DRB1*12:01.
For the next test, the target named is HLA DRB1*15:01 (Homo sapiens, UniProt P01903+P01911). Kind of test: biochemical. The settings on record: binder threshold 1,000 nM, read-out: In vitro (IC50 nM) DRB1*15:01. It is filed as binding.
Test [1] relates to pre-cultured PBMCs (NSP12-specific T cells). Kind of test: IFN-γ ELISpot with single 15-mer peptides after 11–13 days in vitro peptide-pool T-cell expansion. It is filed as cell-based, human. The settings on record: single NSP12 15-mer peptides; for peptide-specific response, donor HH-N12-18, post COVID-19 / peptide-specific response, donor HH-N12-34, post COVID-19 / peptide-specific response, donor HH-N12-35, post COVID-19 / peptide-specific response, donor HH-N12-36, post COVID-19 / peptide-specific response, donor HH-N12-37, post COVID-19: sample post COVID-19; for peptide-specific response, donor HH-N12-18, pre COVID-19 / peptide-specific response, donor HH-N12-34, pre COVID-19 / peptide-specific response, donor HH-N12-35, pre COVID-19 / peptide-specific response, donor HH-N12-36, pre COVID-19 / peptide-specific response, donor HH-N12-37, pre COVID-19: sample pre COVID-19.

HLA DRB1*11:01, sequence (P01903 26-254, other chains not shown): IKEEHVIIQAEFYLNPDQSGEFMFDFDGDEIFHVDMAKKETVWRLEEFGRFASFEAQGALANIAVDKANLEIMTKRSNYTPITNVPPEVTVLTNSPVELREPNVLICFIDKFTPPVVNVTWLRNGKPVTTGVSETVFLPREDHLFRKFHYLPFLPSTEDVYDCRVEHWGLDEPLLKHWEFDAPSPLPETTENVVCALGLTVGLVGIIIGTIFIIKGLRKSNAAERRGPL
HLA DRB1*03:01, sequence (P01903 26-254, other chains not shown): as above

Take `CC[C@H](C)[C@H](NC(=O)[C@@H]1CCCN1C(=O)[C@H](CCSC)NC(=O)[C@H](CC(C)C)NC(=O)[C@H](CC(C)C)NC(=O)[C@H](CO)NC(=O)[C@H](Cc1ccc(O)cc1)NC(=O)[C@H](Cc1ccc(O)cc1)NC(=O)[C@@H](N)CO)C(=O)N[C@@H](CC(C)C)C(=O)N[C@H](C(=O)N[C@@H](CC(C)C)C(=O)N[C@H](C(=O)N[C@@H](CCCNC(=N)N)C(=O)N[C@@H](C)C(=O)O)[C@@H](C)O)[C@@H](C)O` [NSP12_48]: the IC50 stood at 7.7 nM at HLA DRB1*01:01; 9120 nM at HLA DRB1*03:01; 224 nM at HLA DRB1*04:01; 147 nM on HLA DRB1*04:05; 115 nM on HLA DRB1*07:01; 498 nM at HLA DRB1*08:02. Moreover, the IC50 stood at 1550 nM on HLA DRB1*09:01, 73 nM on HLA DRB1*11:01, 1350 nM at HLA DRB1*12:01 and 23 nM at HLA DRB1*15:01.

Turning to `CC[C@H](C)[C@H](NC(=O)[C@H](CC(=O)O)NC(=O)[C@H](CS)NC(=O)[C@H](CCSC)NC(=O)[C@@H](NC(=O)[C@@H]1CCCN1C(=O)[C@H](CC(C)C)NC(=O)[C@H](CC(N)=O)NC(=O)[C@H](Cc1ccc(O)cc1)NC(=O)[C@H](CCCNC(=N)N)NC(=O)[C@@H](N)Cc1ccc(O)cc1)[C@@H](C)O)C(=O)N[C@@H](CCCNC(=N)N)C(=O)N[C@@H](CCC(N)=O)C(=O)N[C@@H](CC(C)C)C(=O)N[C@@H](CC(C)C)C(=O)O` [Peptide 92], the IC50 was 12000 nM at HLA DRB1*01:01; 5310 nM on HLA DRB1*04:01; 4640 nM on HLA DRB1*04:05; 1840 nM at HLA DRB1*07:01; 1490 nM at HLA DRB1*09:01; 8940 nM on HLA DRB1*11:01. For the same compound, the IC50 was 5120 nM at HLA DRB1*12:01 and 2910 nM at HLA DRB1*15:01.

Regarding `CC(C)[C@H](NC(=O)[C@H](CO)NC(=O)[C@H](CC(N)=O)NC(=O)[C@H](C)NC(=O)[C@H](Cc1ccc(O)cc1)NC(=O)[C@H](C)NC(=O)[C@@H](NC(=O)[C@@H](NC(=O)[C@H](C)NC(=O)[C@H](CC(=O)O)NC(=O)CNC(=O)[C@H](CO)NC(=O)[C@@H](N)CO)[C@@H](C)O)[C@@H](C)O)C(=O)N[C@@H](Cc1ccccc1)C(=O)N[C@@H](CC(N)=O)C(=O)O` [Peptide 137], the IC50 on HLA DRB1*01:01 came out at 1800 nM; at HLA DRB1*04:01, 5180 nM; on HLA DRB1*04:05, 27200 nM; on HLA DRB1*07:01, 3970 nM; on HLA DRB1*09:01 it was 197 nM; at HLA DRB1*11:01, 15900 nM. In addition, the IC50 was found to be 22700 nM at HLA DRB1*12:01 and 567 nM on HLA DRB1*15:01.

On to `CC(C)C[C@H](NC(=O)[C@H](C)NC(=O)[C@H](CC(=O)O)NC(=O)[C@H](CCC(N)=O)NC(=O)[C@H](CC(=O)O)NC(=O)[C@H](CCC(=O)O)NC(=O)[C@@H](N)Cc1ccc(O)cc1)C(=O)N[C@@H](Cc1ccccc1)C(=O)N[C@@H](C)C(=O)N[C@@H](Cc1ccc(O)cc1)C(=O)N[C@H](C(=O)N[C@@H](CCCCN)C(=O)N[C@@H](CCCNC(=N)N)C(=O)N[C@@H](CC(N)=O)C(=O)N[C@H](C(=O)O)C(C)C)[C@@H](C)O` [Peptide 105], for which the IC50 on HLA DRB1*01:01 is 16000 nM; at HLA DRB1*03:01, 39400 nM; at HLA DRB1*04:01, 3090 nM; on HLA DRB1*07:01, 35 nM; at HLA DRB1*08:02, 495 nM; at HLA DRB1*09:01, 8570 nM. The IC50 at HLA DRB1*11:01 was found to be 21 nM; at HLA DRB1*15:01 it was 480 nM.

Consider `CC(C)C[C@H](NC(=O)[C@H](Cc1ccc(O)cc1)NC(=O)[C@H](C)NC(=O)[C@H](Cc1ccc(O)cc1)NC(=O)[C@H](Cc1ccccc1)NC(=O)[C@H](CCC(=O)O)NC(=O)[C@H](CC(N)=O)NC(=O)[C@@H](NC(=O)[C@H](Cc1ccccc1)NC(=O)[C@H](CC(=O)O)NC(=O)[C@@H](NC(=O)[C@H](CC(=O)O)NC(=O)[C@@H](NC(=O)[C@@H](N)CC(=O)O)C(C)C)[C@@H](C)O)C(C)C)C(=O)N[C@@H](CCCNC(=N)N)C(=O)O` [Peptide 148], for which the IC50 was found to be 856 nM on HLA DRB1*01:01; 28500 nM on HLA DRB1*03:01; 16900 nM at HLA DRB1*04:01; 2200 nM on HLA DRB1*08:02; 6950 nM at HLA DRB1*09:01; 949 nM on HLA DRB1*11:01. For the same compound, the IC50 on HLA DRB1*15:01 was 1180 nM.

For `CSCC[C@H](NC(=O)[C@H](CO)NC(=O)[C@H](Cc1ccccc1)NC(=O)[C@H](Cc1c[nH]cn1)NC(=O)[C@H](CCCCN)NC(=O)[C@H](CCCNC(=N)N)NC(=O)[C@H](CC(C)C)NC(=O)[C@H](Cc1ccc(O)cc1)NC(=O)[C@H](C)NC(=O)[C@H](Cc1ccc(O)cc1)NC(=O)[C@H](Cc1ccccc1)NC(=O)[C@H](CCC(=O)O)NC(=O)[C@H](CC(N)=O)NC(=O)[C@@H](NC(=O)[C@@H](N)Cc1ccccc1)C(C)C)C(=O)O` [NSP12_149], the 50% inhibitory concentration (IC50) is 36100 nM on HLA DRB1*01:01; 8370 nM on HLA DRB1*04:01; 3830 nM on HLA DRB1*07:01; 828 nM on HLA DRB1*08:02; 2510 nM at HLA DRB1*09:01; 70 nM on HLA DRB1*11:01. In addition, the IC50 worked out at 2540 nM on HLA DRB1*12:01 and 1250 nM on HLA DRB1*15:01.

With DQTYHPNCVNCLDDR [compound 59], in test [1], the “peptide-specific response, donor HH-N12-18, post COVID-19” value was 0; the “peptide-specific response, donor HH-N12-18, pre COVID-19” value came to 0; the “peptide-specific response, donor HH-N12-34, post COVID-19” value came out at 0; the “peptide-specific response, donor HH-N12-34, pre COVID-19” value stood at 0. For the same compound, in test [1], the “peptide-specific response, donor HH-N12-35, post COVID-19” value is recorded as 0; the “peptide-specific response, donor HH-N12-35, pre COVID-19” value was 0; the “peptide-specific response, donor HH-N12-36, post COVID-19” value was 0; the “peptide-specific response, donor HH-N12-36, pre COVID-19” value was determined as 0.047. For the same compound, in test [1], the “peptide-specific response, donor HH-N12-37, post COVID-19” value turned out to be 0 and the “peptide-specific response, donor HH-N12-37, pre COVID-19” value was found to be 0.

For the compound MRNAGIVGVLTLDNQ [compound 40], in test [1], the “peptide-specific response, donor HH-N12-18, post COVID-19” value is given as 0; the “peptide-specific response, donor HH-N12-18, pre COVID-19” value was determined as 0; the “peptide-specific response, donor HH-N12-34, post COVID-19” value was 0.032; the “peptide-specific response, donor HH-N12-34, pre COVID-19” value was 0. Besides, in test [1], the “peptide-specific response, donor HH-N12-35, post COVID-19” value amounted to 0; the “peptide-specific response, donor HH-N12-35, pre COVID-19” value came out at 0; the “peptide-specific response, donor HH-N12-36, post COVID-19” value is on record as 0; the “peptide-specific response, donor HH-N12-36, pre COVID-19” value came out at 0. In test [1], the “peptide-specific response, donor HH-N12-37, post COVID-19” value is listed as 0 and the “peptide-specific response, donor HH-N12-37, pre COVID-19” value was 0.
